Data published in ChEMBL document CHEMBL1132901, “Synthesis and structure-activity relationships of quaternary ammonium cephalosporins with 3-pyrazolylpyridinium derivatives” (2000).
Values after ≈ are worked out from the molar mass of the structure shown.

How the values were obtained:
Staphylococcus aureus [1] = assay: In vitro antimicrobial activity against Staphylococcus aureus 285; format: functional
Streptococcus pyogenes [2] = assay: In vitro antimicrobial activity against Streptococcus pyogenes 77A; format: functional
Pseudomonas aeruginosa [3] = assay: In vitro antimicrobial activity against Pseudomonas aeruginosa 1771 M; format: functional
Enterobacter cloacae [4] = assay: In vitro antimicrobial activity against Enterobacter cloacae P99; format: functional
Pseudomonas aeruginosa [5] = assay: In vitro antimicrobial activity against Pseudomonas aeruginosa 1771; format: functional
Klebsiella aerogenes = assay: In vitro antimicrobial activity against Klebsiella aerogenes 1522 E; format: functional
Klebsiella oxytoca = assay: In vitro antimicrobial activity against Klebsiella oxytoca 1082; format: functional
Staphylococcus aureus [6] = assay: In vitro antimicrobial activity against Methicillin resistant Staphylococcus aureus (MRSA); format: functional
Pseudomonas aeruginosa [7] = assay: In vitro antimicrobial activity against Pseudomonas aeruginosa 9027; format: functional
Escherichia coli [8] = assay: In vitro antimicrobial activity against Escherichia coli DC 0; format: functional
Escherichia coli [9] = assay: In vitro antimicrobial activity against Escherichia coli 1507E; format: functional
Streptococcus pyogenes [10] = assay: In vitro antimicrobial activity against Streptococcus pyogenes A 308; format: functional
Enterobacter cloacae [11] = assay: In vitro antimicrobial activity against Enterobacter 1321 E; format: functional
Escherichia coli [12] = assay: In vitro antimicrobial activity against Escherichia coli 055; format: functional
Enterococcus faecium = assay: In vitro antimicrobial activity against Streptococcus faecium MD 8b; format: functional
Escherichia coli [13] = assay: In vitro antimicrobial activity against Escherichia coli TEM; format: functional
Salmonella typhimurium = assay: In vitro antimicrobial activity against Salmonella Typhimurium; format: functional, Salmonella enterica subsp. enterica serovar Typhimurium; details: Salmonella enterica
Pseudomonas aeruginosa [14] = assay: In vitro antimicrobial activity against Pseudomonas aeruginosa 1592 E; format: functional
Escherichia coli [15] = assay: In vitro antimicrobial activity against Escherichia coli DC 2; format: functional
Staphylococcus aureus [16] = assay: In vitro antimicrobial activity against Staphylococcus aureus 503; format: functional
Streptococcus pyogenes [17] = assay: In vitro antimicrobial activity against Streptococcus pyogenes SG 511; format: functional

SMILES	MIC (Staphylococcus aureus [1]) [µg/mL]	MIC (Streptococcus pyogenes [2]) [µg/mL]	MIC (Pseudomonas aeruginosa [3]) [µg/mL]	MIC (Enterobacter cloacae [4]) [µg/mL]	MIC (Pseudomonas aeruginosa [5]) [µg/mL]	MIC (Klebsiella aerogenes) [µg/mL]	MIC (Klebsiella oxytoca) [µg/mL]	MIC (Staphylococcus aureus [6]) [µg/mL]	MIC (Pseudomonas aeruginosa [7]) [µg/mL]	MIC (Escherichia coli [8]) [µg/mL]	MIC (Escherichia coli [9]) [µg/mL]	MIC (Streptococcus pyogenes [10]) [µg/mL]	MIC (Enterobacter cloacae [11]) [µg/mL]	MIC (Escherichia coli [12]) [µg/mL]	MIC (Enterococcus faecium) [µg/mL]	MIC (Escherichia coli [13]) [µg/mL]	MIC (Salmonella typhimurium) [µg/mL]	MIC (Pseudomonas aeruginosa [14]) [µg/mL]	MIC (Escherichia coli [15]) [µg/mL]	MIC (Staphylococcus aureus [16]) [µg/mL]	other results
CO/N=C(/C(=O)N[C@@H]1C(=O)N2C(C(=O)[O-])=C(C[n+]3cccc(-c4cc(C(N)=O)[nH]n4)c3)CS[C@H]12)c1csc(N)n1	1.56 (≈ 2.68 µM)	0.013 (≈ 0.0223 µM)	0.781 (≈ 1.34 µM)	50 (≈ 85.7 µM)	1.56 (≈ 2.68 µM)	0.049 (≈ 0.084 µM)	1.56 (≈ 2.68 µM)	50 (≈ 85.7 µM)	6.25 (≈ 10.7 µM)	0.025 (≈ 0.0428 µM)	0.098 (≈ 0.168 µM)	0.013 (≈ 0.0223 µM)	0.025 (≈ 0.0428 µM)	0.025 (≈ 0.0428 µM)	3.12 (≈ 5.35 µM)	0.195 (≈ 0.334 µM)	0.049 (≈ 0.084 µM)	3.12 (≈ 5.35 µM)	0.025 (≈ 0.0428 µM)	0.391 (≈ 0.67 µM)	MIC (Streptococcus pyogenes [17]): 0.781 µg/mL (≈ 1.34 µM)
CO/N=C(/C(=O)N[C@@H]1C(=O)N2C(C(=O)[O-])=C(C[n+]3cccc(-c4cc(N)n(CCO)n4)c3)CS[C@H]12)c1csc(N)n1	1.56 (≈ 2.61 µM)	0.013 (≈ 0.0217 µM)	0.391 (≈ 0.652 µM)	50 (≈ 83.4 µM)	3.12 (≈ 5.21 µM)	0.049 (≈ 0.0817 µM)	3.12 (≈ 5.21 µM)	12.5 (≈ 20.8 µM)	12.5 (≈ 20.8 µM)	0.025 (≈ 0.0417 µM)	0.098 (≈ 0.163 µM)	0.025 (≈ 0.0417 µM)	0.025 (≈ 0.0417 µM)	0.025 (≈ 0.0417 µM)	1.56 (≈ 2.61 µM)	0.098 (≈ 0.163 µM)	0.098 (≈ 0.163 µM)	6.25 (≈ 10.4 µM)	0.013 (≈ 0.0217 µM)	0.391 (≈ 0.652 µM)	MIC (Streptococcus pyogenes [17]): 0.781 µg/mL (≈ 1.3 µM)
CO/N=C(/C(=O)N[C@@H]1C(=O)N2C(C(=O)[O-])=C(C[n+]3cccc(-c4cc(N)n(C)n4)c3)CS[C@H]12)c1csc(N)n1	0.781 (≈ 1.37 µM)	0.007 (≈ 0.0123 µM)	0.391 (≈ 0.686 µM)	25 (≈ 43.9 µM)	1.56 (≈ 2.74 µM)	0.025 (≈ 0.0439 µM)	1.56 (≈ 2.74 µM)	50 (≈ 87.8 µM)	6.25 (≈ 11 µM)	0.025 (≈ 0.0439 µM)	0.049 (≈ 0.086 µM)	0.013 (≈ 0.0228 µM)	0.025 (≈ 0.0439 µM)	0.025 (≈ 0.0439 µM)	1.56 (≈ 2.74 µM)	0.098 (≈ 0.172 µM)	0.049 (≈ 0.086 µM)	3.12 (≈ 5.49 µM)	0.013 (≈ 0.0228 µM)	0.391 (≈ 0.686 µM)	MIC (Streptococcus pyogenes [17]): 0.781 µg/mL (≈ 1.37 µM)
CO/N=C(/C(=O)N[C@@H]1C(=O)N2C(C(=O)[O-])=C(C[n+]3cccc(-c4cc(N)[nH]n4)c3)CS[C@H]12)c1csc(N)n1	0.781 (≈ 1.41 µM)	0.007 (≈ 0.0126 µM)	0.195 (≈ 0.351 µM)	50 (≈ 90 µM)	0.781 (≈ 1.41 µM)	0.025 (≈ 0.045 µM)	1.56 (≈ 2.81 µM)	25 (≈ 45 µM)	3.12 (≈ 5.62 µM)	0.025 (≈ 0.045 µM)	0.025 (≈ 0.045 µM)	0.007 (≈ 0.0126 µM)	0.013 (≈ 0.0234 µM)	0.013 (≈ 0.0234 µM)	1.56 (≈ 2.81 µM)	0.049 (≈ 0.0882 µM)	0.049 (≈ 0.0882 µM)	1.56 (≈ 2.81 µM)	0.013 (≈ 0.0234 µM)	0.195 (≈ 0.351 µM)	MIC (Streptococcus pyogenes [17]): 0.391 µg/mL (≈ 0.704 µM)
CO/N=C(/C(=O)N[C@@H]1C(=O)N2C(C(=O)[O-])=C(C[n+]3cccc(-c4cc(C(N)=O)nn4CCO)c3)CS[C@H]12)c1csc(N)n1	3.12 (≈ 4.98 µM)	0.025 (≈ 0.0398 µM)	0.781 (≈ 1.24 µM)	50 (≈ 79.7 µM)	3.12 (≈ 4.98 µM)	0.098 (≈ 0.156 µM)	6.25 (≈ 9.96 µM)	25 (≈ 39.8 µM)	25 (≈ 39.8 µM)	0.098 (≈ 0.156 µM)	0.195 (≈ 0.311 µM)	0.049 (≈ 0.0781 µM)	0.049 (≈ 0.0781 µM)	0.098 (≈ 0.156 µM)	6.25 (≈ 9.96 µM)	0.391 (≈ 0.623 µM)	0.098 (≈ 0.156 µM)	12.5 (≈ 19.9 µM)	0.098 (≈ 0.156 µM)	0.781 (≈ 1.24 µM)	MIC (Streptococcus pyogenes [17]): 1.56 µg/mL (≈ 2.49 µM)
CO/N=C(/C(=O)N[C@@H]1C(=O)N2C(C(=O)[O-])=C(C[n+]3cccc(-c4cc(C(N)=O)nn4C)c3)CS[C@H]12)c1csc(N)n1	3.12 (≈ 5.23 µM)	0.013 (≈ 0.0218 µM)	0.391 (≈ 0.654 µM)	25 (≈ 41.8 µM)	3.12 (≈ 5.23 µM)	0.049 (≈ 0.082 µM)	3.12 (≈ 5.23 µM)	100 (≈ 167 µM)	25 (≈ 41.8 µM)	0.049 (≈ 0.082 µM)	0.098 (≈ 0.164 µM)	0.025 (≈ 0.0418 µM)	0.025 (≈ 0.0418 µM)	0.049 (≈ 0.082 µM)	3.12 (≈ 5.23 µM)	0.195 (≈ 0.326 µM)	0.098 (≈ 0.164 µM)	12.5 (≈ 20.9 µM)	0.025 (≈ 0.0418 µM)	0.391 (≈ 0.654 µM)	MIC (Streptococcus pyogenes [17]): 1.56 µg/mL (≈ 2.62 µM)
CC(C)(O/N=C(\C(=O)N[C@@H]1C(=O)N2C(C(=O)[O-])=C(C[n+]3ccccc3)CS[C@H]12)c1csc(N)n1)C(=O)O [CEFTAZIDIME]	12.5 (≈ 22.9 µM)	0.049 (≈ 0.0896 µM)	0.195 (≈ 0.357 µM)	> 100	0.781 (≈ 1.43 µM)	0.098 (≈ 0.179 µM)	0.391 (≈ 0.715 µM)	> 100	3.12 (≈ 5.72 µM)	0.098 (≈ 0.179 µM)	0.195 (≈ 0.357 µM)	0.098 (≈ 0.179 µM)	0.025 (≈ 0.0457 µM)	0.098 (≈ 0.179 µM)	> 100	0.195 (≈ 0.357 µM)	0.195 (≈ 0.357 µM)	1.56 (≈ 2.86 µM)	0.098 (≈ 0.179 µM)	3.12 (≈ 5.72 µM)	MIC (Streptococcus pyogenes [17]): 12.5 µg/mL (≈ 22.9 µM)
